Source: patent US4514330A, “Carbon-7-substituted atinomycin D analogue” (Trustees of Boston University, priority 1983, dated 1985)
Values after ≈ are worked out from the molar mass of the structure shown. Where two headings read alike, the source gives them in different places.

Columns and labels:
DNA [1] = details: known analogues; cited from earlier work
DNA [2] = assay: Thermal denaturation of DNA (ΔTm), stabilization of DNA helical structure on drug binding; design: species or system calf thymus; details: for Tm (ΔTm = Tm of DNA-drug complex minus Tm of DNA): drug 1.4 × 10^-4 M, DNA (P) 1.4 × 10^-3 M, 0.01 M phosphate buffer pH 7.0, EDTA, 5% dimethyl sulfoxide
Method: Thermal denaturation studies were carried out according to the procedure described in J. Med. Chem., Vol. 24, p. 1052 (1981). The ΔTm values in Table II give a measure of stabilization of DNA helical structure as a consequence of drug binding.
^a ΔTm = m of DNAdrug complex minus m of DNA.
Concentraiton of drug, 1.4 × 10^-4 M; of DNA (P), 1.4 ×
10^-3 M in 0.01 M phosphate buffer (pH 7.0), 5 × 10^-3 M in
EDTA and 5% dimethyl sulfoxide.
^d Highest dose tested. These values are derived at high temperatur
(67°-75° C.) and may not always correlate with the results
of other DNA-binding studies (e.g., absorptiometric or circular dichroic).
Melting points were obtained with a Thomas-Hoover melting point apparatus at a heating rate of 2° C./min. Column chromatography was accomplished with silica gel powder (Baker No. 3405, 60-20 mesh) or acid alumina (Woelm grade 1). Limited gel-filtration work was done on Sephadex LH-20, particle size 25-100 μm (Pharmacia Fine Chemicals). Thin-layer chromatography was performed on silica gel plates (E. M. Laboratories, Inc.). Solvent systems used were (A) butanol-formic acid-H2 O (75:13:12), (B) EtOAc-acetone (3:1), and (C) Cifferri, the organic phase of the mixture EtOAc-MeOH-H2 O (20:1:20). High-performance liquid chromatography was carried out on a Varian Model 5020 gradient liquid chromatograph equipped with CD-111L chromatography data system and fitted with Varian reversed-phase C18 column with isocratic solvent systems, CH3 -CN-5 mM NH4 OAc buffer, pH 6.4 (68:32 or 62:38), pressure 80-140 atm, flow rate 1.5 mL/min, with UV-visible variable and fixed wavelength dual detectors at 254 and 466 nm. Spectra were determined on the following instruments: IR spectra were obtained with a Perkin-Elmer Model 237 Infra Cord with KBr micropellets or chloroform solutions; UV-visible spectra were obtained on a Gilford 250 spectrophotometer, which, with the addition of a base-line reference compensator (Analog Multiplexer 6064) and thermoprogrammer, auto four cell programmer and thermoelectric cell holder 2577, was used to obtain thermal denaturation curves; NMR spectra were obtained on a JOEL FQ-90-90MHZ spectrometer equipped with Fourier transform; and CD spectra were obtained on a Cary 61 spectrophotometer. All elemental analyses were within ±0.4% of the theoretical values. Actinomycin D, batch no. NCS 3053, lot L554651-0-10, was provided by Natural Products Branch, National Cancer Institute, Silver Spring, Md. Calf thymus DNA type 1 was purchased from Sigma Chemical Co.

DNA [3] = assay: DNA-binding mode, covalent and noncovalent (statements)
P-388 leukemia = assay: In vivo antitumor activity against P-388 lymphocytic leukemia in CDF1 mice; details: for % ILS (percent increase in life span) / MST (median survival time) / cure (over 55 day survivors): days 1, 5, 9; for minimal effective dose: Mus musculus, P388, ip, read-out: MED (minimum effective dose, 40% increase in life span over control)
Method: Studies on in vivo activity of AMD and AMD analogues were carried out with P-388 lymphocytic leukemia in CDF1 hybrid mice. The drugs were administered either daily for 4 successive days (qd 1-4) or on days 1, 5 and 9 (q4d 1, 5, 9) beginning 1 day after tumor implantation.
^a Male CDF1 (18-23 g) mice were inoculated intraperitoneally
(ip) with 10^6 P388 cells on day 0. Drugs were administered, also ip,
in 10% dimethyl sulfoxidesaline on days 1, 5 and 9. Test solutions were
kept at 0-4° C., protected from light, and the stability and
homogeneity were checked periodically by TLC and HPLC.
^b MST = median survival time.
^c % ILS = percent increase in life span.
^d Over 55 day survivors. Average of three experiments. The
^a Drugs administed ip once daily either for 4 successive days (qd
1-4) or on days 1, 5 and 9 (q4d 1, 5 9), starting 1 day after tumor
^b MED (minimum effective dose) is the dose (milligrams/kilogram)
providing an increase in life span of 40% over control in P388

[4] = test system: human lymphoblastic leukemic cells (CCRF-CEM); assay: In vitro growth-inhibitory activity against human lymphoblastic leukemic cells (CCRF-CEM) in log phase; format: cell-based; details: for IC50: Homo sapiens
Method: ^b Using human lymohoblastic leukemia cells in logplastic growth.
Compounds were dissolved in Me2 So medium, final growth medium

normal CDF1 male mice = assay: Maximum tolerated dose (LD10) in normal, tumor-free CDF1 male mice; format: in vivo; details: for MTD (maximum tolerated dose, lethal for 10% of normal mice; = LD10): deaths during 21 days
Method: ^c MTD (maximum tolerated dose) is the lethal dose
(milligrams/kilogram) for 10% normal CDF1 male mice (18-23 g);
were calculated from a plot of log dose vs. percent mortality. Average of
two to three experiments.
Biological Experiments. Determination of LD10 Values. Tumor-free CDF1 male mice weighing 18-23 g were given a broad range of doses of drugs in 10% dimethyl sulfoxide-saline on either days 1, 5 and 9 or on 4 successive days. Drugs were administered intraperitoneally (ip).
The maximum tolerated doses of AMD and analogues that caused deaths in only 10% of the tested animals in 21 days were recorded as MTD. The results are an average of two experiments in each. The MTD values obtained following schedules q4d 1, 5, 9 (three injections) and qd 1-4 (four injections) are recorded in Table IV. These doses are the same as LD10 (lethal dose of 10% of tumor-free animals in 21 days).

calf thymus DNA = assay: DNA binding by visible absorption and CD spectra of DNA (P)-drug complex; details: mole ratio DNA (P)/analogue = 10:1; 3b, 4b and 5b compared; 1.0×10^-5 M, pH 7
Text: In FIG. 1, absorption (top) and circular dichroism (bottom) spectra in 0.01 M phosphate buffer (pH7) containing EDTA (10^-5 M) and Me2 SO (5%): 3b (...), 4b (---), 5b (--). Concentration of drug in each case was 1.0×10^-5 M. In this respect, they are almost indistinguishable from the known analogue 7-methoxyactinomycin D (5b), whose structure and physical properties we have previously reported. The absorption spectra of all these analogues in aqueous buffer are also almost superimposable. […] The absorption spectrum of the analogues above 240 nm is mainly due to the electronic configuration of the tricyclic chromophore. The CD spectrum in the same wavelength region is an indicator of peptide conformation in actinomycin analogues, because it is the peptide lactone ring that confers optical activity on the nearly planar chromophore. The nature of the CD spectra (3b, 4b and 5b) asserts that in these analogues there is an identical relationship between the chromophores and peptide lactones. This relationship is very important, because during binding to DNA, AMD and some analogues are known to rely on the cooperative role between the chromophore and the peptide lactones for their highly specific DNA-binding property.
Any change in the configurations of the peptide lactones on binding to DNA is generally expressed in the CD spectra of the analogue-DNA complexes. […] The changes in the visible absorption spectra of 3b, 4b and 5b and also their CD spectra observed after adding calf thymus DNA [mole ratio of DNA (P)/analogue=10:1] are identical (FIG. 2). In FIG. 2, the absorption (top) and CD spectra of the DNA (P)-drug complex (ratio 10:1). Concentrations, buffer and line types are as in FIG. 1.

[5] = three injections ip, q4d 1, 5, 9

For `Cc1c2oc3c(C)c(N)cc(C(=O)N[C@@H]4C(=O)N[C@H](C(C)C)C(=O)N5CCC[C@H]5C(=O)N(C)CC(=O)N(C)[C@@H](C(C)C)C(=O)O[C@@H]4C)c3nc-2c(C(=O)N[C@@H]2C(=O)N[C@H](C(C)C)C(=O)N3CCC[C@H]3C(=O)N(C)CC(=O)N(C)[C@@H](C(C)C)C(=O)O[C@@H]2C)c(N)c1=O` [7-aminoactinomycin D], the “mode of DNA binding, same way as AMD” value (DNA [1]) is given as “by intercalation of the chromophore and concomitant hydrogen and hydrophobic interactions of the peptide lactones”.
In the case of `CCN(CC)C(=O)c1c2nc3c(C(=O)N(CC)CC)ccc(C)c3oc-2c(C)c(=O)c1N` [Compound 1a, reference compound], the “Tm (ΔTm = Tm of DNA-drug complex minus Tm of DNA)” value (DNA [2]) is reported as 0 °C and the DNA-binding related activity (DNA [3]) is reported as “no DNA-binding related activity”.
With `CCN(CC)C(=O)c1c2nc3c(C(=O)N(CC)CC)cc(O)c(C)c3oc-2c(C)c(=O)c1N` [Compound 2a] the “Tm (ΔTm = Tm of DNA-drug complex minus Tm of DNA)” value (DNA [2]) was 0 °C.
In the case of `Cc1c2oc3c(C)c(O)cc(C(=O)N[C@@H]4C(=O)N[C@H](C(C)C)C(=O)N5CCC[C@H]5C(=O)N(C)CC(=O)N(C)[C@@H](C(C)C)C(=O)O[C@@H]4C)c3nc-2c(C(=O)N[C@@H]2C(=O)N[C@H](C(C)C)C(=O)N3CCC[C@H]3C(=O)N(C)CC(=O)N(C)[C@@H](C(C)C)C(=O)O[C@@H]2C)c(N)c1=O` [Compound 2b, 7-hydroxyactinomycin D, reference compound], the “% ILS (percent increase in life span)” value (P-388 leukemia; 0.15 mg/kg ip) is reported as 10%, the “MST (median survival time)” value (P-388 leukemia; 0.15 mg/kg ip) is reported as 12 days and the “cure (over 55 day survivors)” value (P-388 leukemia; 0.15 mg/kg ip) is reported as 0/7. For the same molecule, the “% ILS (percent increase in life span)” value (P-388 leukemia; 0.30 mg/kg ip) was 55%, the “MST (median survival time)” value (P-388 leukemia; 0.30 mg/kg ip) was 17 days and the “cure (over 55 day survivors)” value (P-388 leukemia; 0.30 mg/kg ip) was 0/7. The “% ILS (percent increase in life span)” value (P-388 leukemia; 0.60 mg/kg ip) was 89%, the “MST (median survival time)” value (P-388 leukemia; 0.60 mg/kg ip) was 21 days and the “cure (over 55 day survivors)” value (P-388 leukemia; 0.60 mg/kg ip) was 0/7. For the same molecule, the “% ILS (percent increase in life span)” value (P-388 leukemia; 1.20 mg/kg ip) was 127%, the “MST (median survival time)” value (P-388 leukemia; 1.20 mg/kg ip) was 25 days and the “cure (over 55 day survivors)” value (P-388 leukemia; 1.20 mg/kg ip) was 0/7. The “% ILS (percent increase in life span)” value (P-388 leukemia; 1.80 mg/kg ip) was 136%, the “MST (median survival time)” value (P-388 leukemia; 1.80 mg/kg ip) was 26 days and the “cure (over 55 day survivors)” value (P-388 leukemia; 1.80 mg/kg ip) was 0/7. The “% ILS (percent increase in life span)” value (P-388 leukemia; 3.00 mg/kg ip) was 37%, the “MST (median survival time)” value (P-388 leukemia; 3.00 mg/kg ip) was 15 days and the “cure (over 55 day survivors)” value (P-388 leukemia; 3.00 mg/kg ip) was 0/7. For the same molecule, the minimal effective dose (P-388 leukemia; four injections ip, qd 1-4) was 0.2 mg/kg, the minimal effective dose (P-388 leukemia; [5]) was 0.275 mg/kg and the “therapeutic index: MTD/MED” value (P-388 leukemia; four injections ip, qd 1-4) was 10. The “activity in respect of % ILS, 1b versus 2b” value (P-388 leukemia; ip, q4d 1, 5, 9) was “approximately equiactive”, the “dose higher than AMD needed for equiactivity” value (P-388 leukemia; ip, q4d 1, 5, 9) was > 14 fold and the “therapeutic index: MTD/MED” value (P-388 leukemia; [5]) was 15. The “Tm (ΔTm = Tm of DNA-drug complex minus Tm of DNA)” value (DNA [2]) was 6.7 ± 0.15 °C, the “DNA melting profile / ΔTm character of the DNA complex” value (DNA [2]; thermal denaturation, words) was “sharp and smooth” and the IC50 ([4]; final growth medium contained 1% Me2SO, log phase, read-out: ID50 (in vitro growth inhibition, CCRF-CEM)) was 0.95 µg/mL (≈ 0.747 µM). For the same molecule, the “MTD (maximum tolerated dose, lethal for 10% of normal mice; = LD10)” value (normal CDF1 male mice; four injections ip, qd 1-4) was 2.0 milligrams/kilogram, the “MTD dose as multiple of the MTD dose for AMD” value (normal CDF1 male mice; q4d 1, 5, 9 schedule) was 17 fold and the “fold less toxic than AMD” value (normal CDF1 male mice; qd 1-4 schedule) was 13 fold. The “MTD (maximum tolerated dose, lethal for 10% of normal mice; = LD10)” value (normal CDF1 male mice; [5]) was 4.2 milligrams/kilogram.
With `CCN(CC)C(=O)c1c2nc3c(C(=O)N(CC)CC)cc(OCC4CO4)c(C)c3oc-2c(C)c(=O)c1N` (stereo not drawn) [Compound 3a] the “Tm (ΔTm = Tm of DNA-drug complex minus Tm of DNA)” value (DNA [2]) was 0 °C, the “fold less toxic compared to AMD and its analogues” value [4] was “more than 1000 fold” and the IC50 ([4]; read-out: ID50 (the source's name)) was 9 µg/mL (≈ 17.6 µM).
For `CCN(CC)C(=O)c1c2nc3c(C(=O)N(CC)CC)cc(OCC(O)CO)c(C)c3oc-2c(C)c(=O)c1N` (stereo not drawn) [Compound 4a], the “Tm (ΔTm = Tm of DNA-drug complex minus Tm of DNA)” value (DNA [2]) was 0 °C and the “fold less toxic compared to AMD and its analogues” value [4] was “more than 1000 fold”.
For `COc1cc(C(=O)N[C@@H]2C(=O)N[C@H](C(C)C)C(=O)N3CCC[C@H]3C(=O)N(C)CC(=O)N(C)[C@@H](C(C)C)C(=O)O[C@@H]2C)c2nc3c(C(=O)N[C@@H]4C(=O)N[C@H](C(C)C)C(=O)N5CCC[C@H]5C(=O)N(C)CC(=O)N(C)[C@@H](C(C)C)C(=O)O[C@@H]4C)c(N)c(=O)c(C)c-3oc2c1C` [Compound 5b, 7-methoxyactinomycin D, reference compound], the “changes in visible absorption and CD spectra after adding calf thymus DNA” value (calf thymus DNA) was “identical”.
For `Cc1c2oc3c(C)c([N+](=O)[O-])cc(C(=O)N[C@@H]4C(=O)N[C@H](C(C)C)C(=O)N5CCC[C@H]5C(=O)N(C)CC(=O)N(C)[C@@H](C(C)C)C(=O)O[C@@H]4C)c3nc-2c(C(=O)N[C@@H]2C(=O)N[C@H](C(C)C)C(=O)N3CCC[C@H]3C(=O)N(C)CC(=O)N(C)[C@@H](C(C)C)C(=O)O[C@@H]2C)c(N)c1=O` [Compound 7-nitro-, 7-nitro-], the “mode of DNA binding, same way as AMD” value (DNA [1]) is listed as “by intercalation of the chromophore and concomitant hydrogen and hydrophobic interactions of the peptide lactones”.
